Assay results taken from patent US11253531B2, “Lipid supplements for reducing nerve action potentials” (Nutritional Therapeutics, Inc., priority 2011, dated 2022).

System: dorsal root ganglia neurons
Assay: Field stimulation of cultured neurons, membrane potential by di8ANEPPS fluorescence
Type: cell-based, rat
Conditions: caffeine added to NTFL
Source text: The procedure below details a study performed on one type of cultured nerve cells, namely dorsal root ganglia neurons, using a 10% solution of glycerolphospholipids in combination with inulin (NTFL).
The cultured cells were then exposed to an aqueous solution of the lipid supplement comprising glycerolphospholipids in combination with inulin, referred to as NTFL nanomicelles.
This was used as an indicator of membrane potential instead of microelectrodes because patching these neurons or the use of microelectrodes can be difficult in these studies in the presence of the NTFL nanomicellles solutions.
To perform the comparison, electrodes were applied to the bath containing the cultured neurons and field stimulation was provided by passed current through the bath. This caused depolarization of the nerve cells resulting in fluorescence of the di8ANEPPS.

## Cn1c(=O)c2c(ncn2C)n(C)c1=O [caffeine]
  effect on nerve conduction: did not appear to have an effect on nerve conduction
